# Active and inactive are the calls of the source. The rule behind the calls is not given here.
# How the values were obtained:
# HUVEC [1] = test: Antiangiogenesis activity in HUVEC assessed as inhibition of VEGF-induced tube formation at 25 uM; assay type: functional, cell-based; conditions: Homo sapiens
# [2] = target: Acetylcholinesterase (Homo sapiens) (UniProt P22303); test: Inhibition of acetylcholine esterase (unknown origin) up to 200 uM by Ellman's colorimetric method
# LLC-PK1 = test: Renoprotective activity in pig LLC-PK1 cells assessed as inhibition of cisplatin-induced nephrotoxicity at 100 to 200 uM preincubated for 2 hrs followed by cisplatin challenge measured after 24 hrs by MTT assay; assay type: functional, cell-based; conditions: Sus scrofa
# HUVEC [3] = test: Cytotoxicity in HUVEC assessed as reduction in cell viability up to 50 uM; assay type: cell-based; conditions: human
# [4] = Antioxidant activity of the compound assessed as DPPH radical scavenging activity by colorimetric method; assay type: physicochemical
# HUVEC [5] = test: Antiangiogenesis activity in HUVEC assessed as inhibition of VEGF-induced tube formation at 50 uM; assay type: functional, cell-based; conditions: Homo sapiens
# Sequence of Acetylcholinesterase (Homo sapiens) (P22303 whole entry): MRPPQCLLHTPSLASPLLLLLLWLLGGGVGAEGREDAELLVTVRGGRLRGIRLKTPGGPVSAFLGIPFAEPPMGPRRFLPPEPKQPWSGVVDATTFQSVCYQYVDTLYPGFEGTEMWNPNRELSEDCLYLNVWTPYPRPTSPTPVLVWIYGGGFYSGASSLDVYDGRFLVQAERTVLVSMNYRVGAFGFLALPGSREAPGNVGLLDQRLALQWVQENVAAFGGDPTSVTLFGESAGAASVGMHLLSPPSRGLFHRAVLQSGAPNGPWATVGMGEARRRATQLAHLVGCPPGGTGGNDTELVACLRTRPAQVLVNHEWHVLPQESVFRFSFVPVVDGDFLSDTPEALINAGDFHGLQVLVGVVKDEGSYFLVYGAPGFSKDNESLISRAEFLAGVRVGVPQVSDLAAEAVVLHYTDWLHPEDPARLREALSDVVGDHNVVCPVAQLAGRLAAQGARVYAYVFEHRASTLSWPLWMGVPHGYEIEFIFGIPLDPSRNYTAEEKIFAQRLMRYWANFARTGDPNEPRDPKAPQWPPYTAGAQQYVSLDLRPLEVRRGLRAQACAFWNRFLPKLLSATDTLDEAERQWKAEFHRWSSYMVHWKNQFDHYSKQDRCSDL
Compound,Activity (HUVEC [1]),inhibition [2],Activity (LLC-PK1),Activity (HUVEC [3]),Activity [4],Activity (HUVEC [5])
CC(C)=CCC[C@](C)(O[C@@H]1O[C@H](CO)[C@@H](O)[C@H](O)[C@H]1O)[C@H]1CC[C@]2(C)[C@@H]1[C@H](O)C[C@@H]1[C@@]3(C)CC[C@H](O)C(C)(C)[C@@H]3CC[C@]12C,Active,,,,,
CCCCCCCCCCCCCCCC[C@@H](O)C(=O)N[C@@H](CO[C@@H]1O[C@H](CO)[C@@H](O)[C@H](O)[C@H]1O)[C@H](O)/C=C/CC/C=C(\C)CCCCCC,Active,inactive,Active,Non-toxic,Not Active,Active

# Reference: ChEMBL document CHEMBL3734699, “A new cerebroside from the fruiting bodies of Hericium erinaceus and its applicability to cancer treatment” (Bioorg Med Chem Lett, 2015)
